Data taken from US11981658B2, “Substituted aminopyridine compounds as EGFR inhibitors” (YUHAN CORPORATION, priority 2021, dated 2024).
Read-outs that look alike come from different tables or passages of the source.

Legend:
EGFR L858R/C797S = EGFR L858R/C797S (Homo sapiens, UniProt P00533, C797S/L858R); assay: Biochemical EGFR kinase inhibition assay (Lance Ultra TR-FRET), double mutant L858R/C797S
How it was run: (§1)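 Step 1: compound in kinase buffer, 0.003–10 μM. Step 2: kinase reaction 1 h at room temperature. Step 4: TR-FRET read at 615/665 nm; IC50 calculated.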

EGFR wildtype (WT) = EGFR wildtype (WT) (Homo sapiens, UniProt P00533); assay: Biochemical EGFR kinase inhibition assay (Lance Ultra TR-FRET), wildtype
How it was run: as §1

EGFR Del19/T790M/C797S = EGFR Del19/T790M/C797S (Homo sapiens, UniProt P00533, C797S/DEL746-750/T790M); assay: Biochemical EGFR kinase inhibition assay (Lance Ultra TR-FRET), triple mutant del19/T790M/C797S
How it was run: as §1

EGFR Del19/C797S = EGFR Del19/C797S (Homo sapiens, UniProt P00533, C797S/DEL746-750); assay: Biochemical EGFR kinase inhibition assay (Lance Ultra TR-FRET), double mutant del19/C797S
How it was run: as §1

EGFR L858R/T790M/C797S = EGFR L858R/T790M/C797S (Homo sapiens, UniProt P00533, C797S/L858R/T790M); assay: Biochemical EGFR kinase inhibition assay (Lance Ultra TR-FRET), triple mutant L858R/T790M/C797S
How it was run: as §1

[1] = ATP at Km, read-out: IC50 L858R/C797S (nM), Km ATP
[2] = IC50 L858R/C797S (nM), 100 μM ATP
[3] = ATP at Km, read-out: IC50 WT (nM), Km ATP
[4] = ATP at Km, read-out: IC50 Del19/T790M/C797S (nM), Km ATP
[5] = IC50 Del19/T790M/C797S (nM), 100 μM ATP
[6] = ATP at Km, read-out: IC50 Del19/C797S (nM), Km ATP
[7] = IC50 Del19/C797S (nM), 100 μM ATP
[8] = ATP at Km, read-out: IC50 L858R/T790M/C797S (nM), Km ATP
[9] = IC50 L858R/T790M/C797S (nM), 100 μM ATP
[10] = read-out: IC50 L858R/C797S (nM), 100 μM ATP
[11] = read-out: IC50 WT (nM), 100 μM ATP
[12] = read-out: IC50 Del19/T790M/C797S (nM), 100 μM ATP
[13] = read-out: IC50 Del19/C797S (nM), 100 μM ATP
[14] = read-out: IC50 L858R/T790M/C797S (nM), 100 μM ATP

Sequence of EGFR Del19/T790M/C797S (P00533 with tags, fused parts or gaps DEL746-750/T790M/C797S): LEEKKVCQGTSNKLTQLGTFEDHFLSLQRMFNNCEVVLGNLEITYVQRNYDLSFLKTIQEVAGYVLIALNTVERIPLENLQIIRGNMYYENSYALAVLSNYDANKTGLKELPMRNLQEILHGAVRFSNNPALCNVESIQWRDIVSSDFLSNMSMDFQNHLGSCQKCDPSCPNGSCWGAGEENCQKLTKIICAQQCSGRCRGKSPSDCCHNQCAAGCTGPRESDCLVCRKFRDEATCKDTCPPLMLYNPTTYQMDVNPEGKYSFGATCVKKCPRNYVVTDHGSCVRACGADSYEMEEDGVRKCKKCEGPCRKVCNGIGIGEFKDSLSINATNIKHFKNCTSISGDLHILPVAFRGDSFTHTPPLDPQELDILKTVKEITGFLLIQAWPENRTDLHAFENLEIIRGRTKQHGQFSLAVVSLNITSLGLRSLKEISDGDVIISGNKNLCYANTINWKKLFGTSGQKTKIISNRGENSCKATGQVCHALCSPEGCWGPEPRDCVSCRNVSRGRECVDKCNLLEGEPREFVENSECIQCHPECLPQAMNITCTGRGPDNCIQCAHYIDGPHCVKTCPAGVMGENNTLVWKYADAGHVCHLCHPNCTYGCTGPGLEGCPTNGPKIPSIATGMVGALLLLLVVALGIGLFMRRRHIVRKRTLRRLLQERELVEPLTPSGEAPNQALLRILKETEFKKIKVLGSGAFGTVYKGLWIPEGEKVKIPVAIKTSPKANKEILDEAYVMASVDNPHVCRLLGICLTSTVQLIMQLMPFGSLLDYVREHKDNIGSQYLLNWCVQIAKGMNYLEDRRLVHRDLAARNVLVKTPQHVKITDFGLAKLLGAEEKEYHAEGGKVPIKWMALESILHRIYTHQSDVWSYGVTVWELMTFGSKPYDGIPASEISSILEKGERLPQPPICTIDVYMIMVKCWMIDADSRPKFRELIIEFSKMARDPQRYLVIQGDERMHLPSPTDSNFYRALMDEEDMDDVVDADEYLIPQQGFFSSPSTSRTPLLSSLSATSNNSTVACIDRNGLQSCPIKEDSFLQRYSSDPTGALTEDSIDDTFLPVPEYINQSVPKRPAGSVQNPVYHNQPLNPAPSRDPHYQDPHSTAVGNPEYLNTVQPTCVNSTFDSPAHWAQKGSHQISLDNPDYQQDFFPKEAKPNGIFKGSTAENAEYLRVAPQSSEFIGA
Sequence of EGFR Del19/C797S (P00533 with tags, fused parts or gaps DEL746-750/C797S): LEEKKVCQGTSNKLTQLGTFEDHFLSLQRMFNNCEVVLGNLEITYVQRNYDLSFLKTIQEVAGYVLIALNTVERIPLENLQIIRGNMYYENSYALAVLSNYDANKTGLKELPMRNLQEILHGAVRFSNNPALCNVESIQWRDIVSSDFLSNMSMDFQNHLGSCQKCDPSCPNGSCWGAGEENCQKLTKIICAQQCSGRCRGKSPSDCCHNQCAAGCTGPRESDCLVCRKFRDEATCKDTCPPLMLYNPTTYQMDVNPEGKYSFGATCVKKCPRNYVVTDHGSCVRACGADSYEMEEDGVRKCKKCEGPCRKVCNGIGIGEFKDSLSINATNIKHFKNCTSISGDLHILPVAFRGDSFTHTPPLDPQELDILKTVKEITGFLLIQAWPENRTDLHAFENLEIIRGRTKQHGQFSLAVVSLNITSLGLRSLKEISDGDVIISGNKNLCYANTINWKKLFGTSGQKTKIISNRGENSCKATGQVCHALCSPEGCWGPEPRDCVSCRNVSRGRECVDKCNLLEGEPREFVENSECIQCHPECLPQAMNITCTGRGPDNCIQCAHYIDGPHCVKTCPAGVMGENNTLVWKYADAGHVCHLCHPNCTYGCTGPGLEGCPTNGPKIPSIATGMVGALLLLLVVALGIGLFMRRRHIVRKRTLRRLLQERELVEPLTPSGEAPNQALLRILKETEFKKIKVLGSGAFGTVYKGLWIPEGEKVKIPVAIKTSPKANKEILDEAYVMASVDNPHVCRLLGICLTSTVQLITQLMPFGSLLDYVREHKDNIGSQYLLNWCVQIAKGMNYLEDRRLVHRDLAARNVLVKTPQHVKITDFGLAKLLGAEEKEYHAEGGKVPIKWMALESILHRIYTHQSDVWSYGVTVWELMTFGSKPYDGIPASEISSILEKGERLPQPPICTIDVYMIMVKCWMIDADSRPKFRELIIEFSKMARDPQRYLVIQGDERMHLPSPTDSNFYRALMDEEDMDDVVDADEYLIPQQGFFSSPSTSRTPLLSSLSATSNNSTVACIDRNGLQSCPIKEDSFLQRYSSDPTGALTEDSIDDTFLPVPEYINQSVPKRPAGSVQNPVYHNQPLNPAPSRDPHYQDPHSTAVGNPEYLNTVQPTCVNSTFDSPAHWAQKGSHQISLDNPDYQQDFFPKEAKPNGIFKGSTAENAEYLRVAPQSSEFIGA
Sequence of EGFR L858R/C797S (P00533 25-1210 C797S/L858R): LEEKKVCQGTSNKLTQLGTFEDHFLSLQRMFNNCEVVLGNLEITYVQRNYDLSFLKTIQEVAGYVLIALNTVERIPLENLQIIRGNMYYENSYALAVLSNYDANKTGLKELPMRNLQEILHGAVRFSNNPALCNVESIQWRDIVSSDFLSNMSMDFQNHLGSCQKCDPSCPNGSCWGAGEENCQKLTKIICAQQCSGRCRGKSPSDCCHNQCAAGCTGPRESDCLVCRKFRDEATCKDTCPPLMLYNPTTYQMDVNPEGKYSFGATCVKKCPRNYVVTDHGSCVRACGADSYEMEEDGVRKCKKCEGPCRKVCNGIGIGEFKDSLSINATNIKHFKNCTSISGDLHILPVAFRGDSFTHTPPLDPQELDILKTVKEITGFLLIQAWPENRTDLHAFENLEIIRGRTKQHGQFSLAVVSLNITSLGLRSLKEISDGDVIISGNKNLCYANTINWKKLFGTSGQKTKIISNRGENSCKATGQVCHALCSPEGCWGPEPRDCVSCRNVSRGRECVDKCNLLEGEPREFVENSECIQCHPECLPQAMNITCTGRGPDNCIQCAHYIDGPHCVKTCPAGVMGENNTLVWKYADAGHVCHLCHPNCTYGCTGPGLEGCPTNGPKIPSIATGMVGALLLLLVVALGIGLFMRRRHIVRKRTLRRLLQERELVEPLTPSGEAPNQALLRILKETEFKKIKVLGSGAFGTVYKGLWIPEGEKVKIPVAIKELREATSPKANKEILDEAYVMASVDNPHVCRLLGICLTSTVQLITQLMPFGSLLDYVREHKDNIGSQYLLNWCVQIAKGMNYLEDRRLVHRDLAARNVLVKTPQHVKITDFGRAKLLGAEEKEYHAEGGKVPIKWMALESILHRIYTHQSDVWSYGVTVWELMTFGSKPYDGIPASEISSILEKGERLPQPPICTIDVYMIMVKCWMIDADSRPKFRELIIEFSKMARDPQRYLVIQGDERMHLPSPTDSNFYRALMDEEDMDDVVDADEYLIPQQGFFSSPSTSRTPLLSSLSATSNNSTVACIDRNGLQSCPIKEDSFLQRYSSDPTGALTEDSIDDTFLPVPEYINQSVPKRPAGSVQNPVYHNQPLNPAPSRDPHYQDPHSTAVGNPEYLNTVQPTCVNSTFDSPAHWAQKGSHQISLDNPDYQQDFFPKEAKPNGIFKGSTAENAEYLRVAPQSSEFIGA
Sequence of EGFR L858R/T790M/C797S (P00533 25-1210 T790M/C797S/L858R): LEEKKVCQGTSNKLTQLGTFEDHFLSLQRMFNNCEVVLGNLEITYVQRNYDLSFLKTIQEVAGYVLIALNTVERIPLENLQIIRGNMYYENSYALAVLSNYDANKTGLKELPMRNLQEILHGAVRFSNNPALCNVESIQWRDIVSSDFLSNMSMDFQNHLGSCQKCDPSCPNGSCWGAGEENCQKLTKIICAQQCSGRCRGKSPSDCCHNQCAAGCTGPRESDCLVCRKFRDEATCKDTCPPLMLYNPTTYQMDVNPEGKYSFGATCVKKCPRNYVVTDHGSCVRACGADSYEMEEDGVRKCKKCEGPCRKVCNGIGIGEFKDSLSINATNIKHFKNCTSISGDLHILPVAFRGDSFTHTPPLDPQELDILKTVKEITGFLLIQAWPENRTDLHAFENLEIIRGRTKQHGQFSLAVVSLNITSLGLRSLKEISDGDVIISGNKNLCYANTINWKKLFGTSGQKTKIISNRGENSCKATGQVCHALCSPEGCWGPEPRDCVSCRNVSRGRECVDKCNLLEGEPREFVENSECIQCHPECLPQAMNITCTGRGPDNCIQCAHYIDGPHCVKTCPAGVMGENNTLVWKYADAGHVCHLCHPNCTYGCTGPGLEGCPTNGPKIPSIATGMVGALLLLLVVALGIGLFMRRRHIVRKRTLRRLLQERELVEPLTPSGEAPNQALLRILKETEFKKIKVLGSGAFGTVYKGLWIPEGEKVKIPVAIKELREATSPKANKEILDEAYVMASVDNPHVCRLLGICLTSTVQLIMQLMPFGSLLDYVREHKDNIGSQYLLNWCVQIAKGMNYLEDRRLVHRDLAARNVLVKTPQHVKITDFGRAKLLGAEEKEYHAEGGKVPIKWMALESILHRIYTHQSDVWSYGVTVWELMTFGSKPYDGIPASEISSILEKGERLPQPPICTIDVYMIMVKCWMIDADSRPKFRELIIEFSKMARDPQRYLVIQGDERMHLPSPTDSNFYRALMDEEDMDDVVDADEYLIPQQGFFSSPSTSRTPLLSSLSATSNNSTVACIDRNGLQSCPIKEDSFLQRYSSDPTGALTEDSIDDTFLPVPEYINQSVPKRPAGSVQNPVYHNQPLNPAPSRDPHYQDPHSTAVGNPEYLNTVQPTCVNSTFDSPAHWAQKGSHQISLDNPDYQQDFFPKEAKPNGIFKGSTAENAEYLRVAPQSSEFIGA

Row | SMILES | IC50 (EGFR L858R/C797S; [1]) [nM] | IC50 (EGFR L858R/C797S; [2]) [nM] | IC50 (EGFR wildtype (WT); [3]) [nM] | IC50 (EGFR wildtype (WT); IC50 WT (nM), 100 μM ATP) [nM] | IC50 (EGFR Del19/T790M/C797S; [4]) [nM] | IC50 (EGFR Del19/T790M/C797S; [5]) [nM] | IC50 (EGFR Del19/C797S; [6]) [nM] | IC50 (EGFR Del19/C797S; [7]) [nM] | IC50 (EGFR L858R/T790M/C797S; [8]) [nM] | IC50 (EGFR L858R/T790M/C797S; [9]) [nM] | IC50 (EGFR L858R/C797S; [10]) [nM] | IC50 (EGFR wildtype (WT); [11]) [nM] | IC50 (EGFR Del19/T790M/C797S; [12]) [nM] | IC50 (EGFR Del19/C797S; [13]) [nM] | IC50 (EGFR L858R/T790M/C797S; [14]) [nM]
1 | CC(C)(O)[C@H]1CC[C@@H](Nc2cc(Nc3ccnc(-c4cnn(S(=O)(=O)C5CC5)c4)n3)ncc2C#Cc2ccc(CN3CCOCC3)cc2)CC1 [Example 162, 2-((1s,4s)-4-((2-((2-(1-(Cyclopropylsulfonyl)-1H-pyrazol-4-yl)pyrimidin-4-yl)amino)-5-((4-(morpholinomethyl)phenyl)ethynyl)pyridin-4-yl)amino)cyclohexyl)propan-2-ol] | 39.9 | 619 | 540 | > 10000 | 27.6 | 22.9 | 44.8 | 58.4 | 12.2 | 26.3 | – | – | – | – | –
2 | CN1CCN(Cc2ccc(C#Cc3cnc(Nc4ccnc(-c5cnn(S(=O)(=O)C6CC6)c5)n4)cc3N3CCC(C)(CO)CC3)cc2)CC1 [Example 164, (1-(2-((2-(1-(Cyclopropylsulfonyl)-1H-pyrazol-4-yl)pyrimidin-4-yl)amino)-5-((4-((4-methylpiperazin-1-yl)methyl)phenyl)ethynyl)pyridin-4-yl)-4-methylpiperidin-4-yl)methanol] | 0.6 | 2.2 | 1.5 | 236 | 0.7 | 0.6 | 0.9 | 1.6 | 0.2 | 0.5 | – | – | – | – | –
3 | C[C@]1(O)CC[C@@H](Nc2cc(Nc3ccnc(-c4cnn(S(=O)(=O)C5CC5)c4)n3)ncc2C#CCN2CCOCC2)CC1 [Example 166, (1s,4s)-4-((2-((2-(1-(Cyclopropylsulfonyl)-1H-pyrazol-4-yl)pyrimidin-4-yl)amino)-5-(3-morpholinoprop-1-yn-1-yl)pyridin-4-yl)amino)-1-methylcyclohexan-1-ol] | 21.9 | – | 411 | – | 1.4 | – | 66.5 | – | 0.9 | – | 194 | > 10000 | 1.9 | 51.1 | 3.8
4 | Cn1cnc(C#Cc2cnc(Nc3ccnc(-c4cnn(S(=O)(=O)C5CC5)c4)n3)cc2N[C@H]2CC[C@@H](O)CC2)n1 [Example 167, (1s,4s)-4-((2-((2-(1-(Cyclopropylsulfonyl)-1H-pyrazol-4-yl)pyrimidin-4-yl)amino)-5-((1-methyl-1,2,4-triazol-3-yl)ethynyl)pyridin-4-yl)amino)cyclohexan-1-ol] | 24 | 532 | 279 | > 10000 | 3.7 | 3.4 | 81.8 | 88.8 | 3.5 | 15.4 | – | – | – | – | –
5 | CCc1cnc(C#Cc2cnc(Nc3ccnc(-c4cnn(S(=O)(=O)C5CC5)c4)n3)cc2N[C@@H]2CCC[C@H](O)C2)s1 [Example 168, (1S,3R)-3-((2-((2-(1-(Cyclopropylsulfonyl)-1H-pyrazol-4-yl)pyrimidin-4-yl)amino)-5-((5-ethylthiazol-2-yl)ethynyl)pyridin-4-yl)amino)cyclohexan-1-ol] | 784 | 8370 | 6250 | > 10000 | 11 | 11.8 | 67.9 | 391 | 9.1 | 71.2 | – | – | – | – | –
6 | Nc1cccc(C#Cc2cnc(Nc3ccnc(-c4cnn(S(=O)(=O)C5CC5)c4)n3)cc2N[C@@H]2CCC[C@H](O)C2)c1 [Example 169, (1 S,3R)-3-((5-((3-Aminophenyl)ethynyl)-2-((2-(1-(cyclopropylsulfonyl)-1H-pyrazol-4-yl)pyrimidin-4-yl)amino)pyridin-4-yl)amino)cyclohexan-1-ol] | 30.6 | 391 | 238 | > 10000 | 7.1 | 3.1 | 4.7 | 10.5 | 2.6 | 6.8 | – | – | – | – | –
7 | Cc1cnc(C#Cc2cnc(Nc3ccnc(-c4cnn(S(=O)(=O)C5CC5)c4)n3)cc2N[C@@H]2CCC[C@H](O)C2)cn1 [Example 170, (1 S,3R)-3-((2-((2-(1-(Cyclopropylsulfonyl)-1H-pyrazol-4-yl)pyrimidin-4-yl)amino)-5-((5-methylpyrazin-2-yl)ethynyl)pyridin-4-yl)amino)cyclohexan-1-ol] | 23.8 | 316 | 286 | > 10000 | 0.9 | 1 | 4.4 | 19.9 | 0.6 | 5.7 | – | – | – | – | –
8 | O=S(=O)(C1CC1)n1cc(-c2nccc(Nc3cc(N[C@H]4CC[C@@H](O)CC4)c(C#Cc4ccc(NCCN5CCOCC5)cc4)cn3)n2)cn1 [Example 172, (1s,4s)-4-((2-((2-(1-(Cyclopropylsulfonyl)-1H-pyrazol-4-yl)pyrimidin-4-yl)amino)-5-((4-((2-morpholinoethyl)amino)phenyl)ethynyl)pyridin-4-yl)amino)cyclohexan-1-ol] | 11.5 | – | 68.4 | – | 4.6 | – | 14.1 | – | 4.8 | – | 124 | > 10000 | 6.9 | 32.4 | 14.5
9 | O=S(=O)(C1CC1)n1cc(-c2nccc(Nc3cc(N[C@H]4CC[C@@H](O)CC4)c(C#Cc4cccc(NCCN5CCOCC5)c4)cn3)n2)cn1 [Example 173, (1s,4s)-4-((2-((2-(1-(Cyclopropylsulfonyl)-1H-pyrazol-4-yl)pyrimidin-4-yl)amino)-5-((3-((2-morpholinoethyl)amino)phenyl)ethynyl)pyridin-4-yl)amino)cyclohexan-1-ol] | 7.8 | – | 22.9 | – | 2.9 | – | 6.2 | – | 1.3 | – | 100 | > 10000 | 9.9 | 8.5 | 10.5
10 | O=S(=O)(C1CC1)n1cc(-c2nccc(Nc3cc(N[C@H]4CC[C@@H](O)CC4)c(C#CC4(O)CCCCC4)cn3)n2)cn1 [Example 174, 1-((6-((2-(1-(Cyclopropylsulfonyl)-1H-pyrazol-4-yl)pyrimidin-4-yl)amino)-4-(((1 s, 4s)-4-hydroxycyclohexyl)amino)pyridin-3-yl)ethynyl)cyclohexan-1-ol] | 30.5 | 283 | 150 | > 10000 | 0.5 | 0.9 | 11 | 10.8 | 1.2 | 2.1 | – | – | – | – | –
11 | CC1(CO)CCN(c2cc(Nc3ccnc(-c4cnn(S(=O)(=O)C5CC5)c4)n3)ncc2C#CC2(O)CCCCC2)CC1 [Example 175, 1-((6-((2-(1-(Cyclopropylsulfonyl)-1H-pyrazol-4-yl)pyrimidin-4-yl)amino)-4-(4-(hydroxymethyl)-4-methylpiperidin-1-yl)pyridin-3-yl)ethynyl)cyclohexan-1-ol] | 33.5 | 333 | 131 | > 10000 | 1.2 | 1.4 | 13.3 | 17.2 | 3.6 | 3.6 | – | – | – | – | –
